Results from PMC9090415, “Discovery of small molecule inhibitors of Plasmodium falciparum apicoplast DNA polymerase” (Journal of Enzyme Inhibition and Medicinal Chemistry, 2022).

Target: P. falciparum apicoplast DNA polymerase (Pf-apPOL) (Plasmodium falciparum, UniProt Q8ILY1)
Test: Fluorescence-based high-throughput DNA polymerase assay (molecular beacon), primary screen and dose-response
Type: biochemical
Conditions: for DNA Pol: 90 min, 10 µM; for % inhibition apPOL 180' 2.5 / % inhibition apPOL 180' 5 / % inhibition apPOL 180' 10 / % inhibition apPOL 180' 20 / % inhibition apPOL 180' 40 / % inhibition apPOL 180' 80: read at 180'
Method in brief: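 Single-point screening used 10 µM compound with 20 nM polymerase, 20 nM hairpin substrate and 6 µM dNTPs for 90 min at 25 °C. Confirmatory titrations (2.5–80 µM) followed fluorescence at three times, and IC50 was derived from a fit including a cooperativity term n.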

P. falciparum apicoplast DNA polymerase (Pf-apPOL), sequence (Q8ILY1 entry or part of it): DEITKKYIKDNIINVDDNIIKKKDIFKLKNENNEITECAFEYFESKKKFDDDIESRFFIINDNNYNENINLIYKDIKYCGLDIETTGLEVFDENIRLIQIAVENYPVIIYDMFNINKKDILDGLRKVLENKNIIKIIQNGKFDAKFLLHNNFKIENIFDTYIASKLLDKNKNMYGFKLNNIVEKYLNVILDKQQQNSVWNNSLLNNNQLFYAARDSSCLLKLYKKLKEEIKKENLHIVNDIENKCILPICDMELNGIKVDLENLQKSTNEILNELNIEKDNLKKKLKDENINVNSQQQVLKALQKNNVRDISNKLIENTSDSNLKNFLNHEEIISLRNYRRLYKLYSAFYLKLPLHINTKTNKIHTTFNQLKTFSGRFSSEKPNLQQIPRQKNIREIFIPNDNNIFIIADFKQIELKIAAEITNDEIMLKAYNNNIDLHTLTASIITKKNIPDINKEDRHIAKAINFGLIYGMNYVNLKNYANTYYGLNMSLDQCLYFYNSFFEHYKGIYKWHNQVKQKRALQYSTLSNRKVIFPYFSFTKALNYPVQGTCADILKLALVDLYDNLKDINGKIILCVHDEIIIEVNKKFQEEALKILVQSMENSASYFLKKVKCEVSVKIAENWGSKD

In the case of `Nc1cc(Oc2ccc(O)c(N)c2)ccc1O` [KU0034728], the “DNA Pol” value (186 hits, DNA Pol (screen value), unit not given) is reported as 65, the “DNA Pol” value ('DNA Pol' (screen value), unit not given) is reported as 65 and the “% inhibition Apo pol 10' 2.5” value (DRC-1, read at 10', concentration 2.5) is reported as 19.846%. For the same molecule, the “% inhibition Apo pol 10' 5” value (DRC-1, read at 10', concentration 5) was 31.2811%, the “% inhibition Apo pol 10' 10” value (DRC-1, read at 10', concentration 10) was 55.4709% and the “% inhibition Apo pol 10' 20” value (DRC-1, read at 10', concentration 20) was 70.5604%. The “% inhibition Apo pol 10' 40” value (DRC-1, read at 10', concentration 40) was 80.3003%, the “% inhibition Apo pol 10' 80” value (DRC-1, read at 10', concentration 80) was 87.2374% and the “% inhibition Apol 90' 2.5” value (DRC-1, read at 90', concentration 2.5) was 8.186%. The “% inhibition Apol 90' 5” value (DRC-1, read at 90', concentration 5) was 16.785%, the “% inhibition Apol 90' 10” value (DRC-1, read at 90', concentration 10) was 34.847% and the “% inhibition Apol 90' 20” value (DRC-1, read at 90', concentration 20) was 48.9946%. For the same molecule, the “% inhibition Apol 90' 40” value (DRC-1, read at 90', concentration 40) was 59.758%, the “% inhibition Apol 90' 80” value (DRC-1, read at 90', concentration 80) was 68.9049% and the “% inhibition apPOL 180' 2.5” value (DRC-1, concentration 2.5) was 2.338%. The “% inhibition apPOL 180' 5” value (DRC-1, concentration 5) was 7.101%, the “% inhibition apPOL 180' 10” value (DRC-1, concentration 10) was 22.2951% and the “% inhibition apPOL 180' 20” value (DRC-1, concentration 20) was 34.6321%. For the same molecule, the “% inhibition apPOL 180' 40” value (DRC-1, concentration 40) was 46.6312%, the “% inhibition apPOL 180' 80” value (DRC-1, concentration 80) was 55.3391% and the “% inhibition Apo pol 5'” value (DRC-2, concentration 5) was 43%. The “% inhibition Apol 40'” value (DRC-2, concentration 20) was 65%, the “% inhibition Apol 40'” value (DRC-2, concentration 40) was 74% and the “% inhibition ApPOL 90'” value (DRC-2, concentration 2.5) was 43%. For the same molecule, the “% inhibition ApPOL 90'” value (DRC-2, concentration 20) was 65%, the “% inhibition apPOL 180'” value (DRC-2, concentration 10) was 43% and the “% inhibition apPOL 180'” value (DRC-2, concentration 40) was 74%. For the same molecule, the “% inhibition Apo pol 5' 2.5” value (DRC-2, read at 5', concentration 2.5) was 42%, the “% inhibition Apo pol 5' 5” value (DRC-2, read at 5', concentration 5) was 43% and the “% inhibition Apo pol 5' 10” value (DRC-2, read at 5', concentration 10) was 50%. The “% inhibition Apo pol 5' 20” value (DRC-2, read at 5', concentration 20) was 52%, the “% inhibition Apo pol 5' 40” value (DRC-2, read at 5', concentration 40) was 56% and the “% inhibition Apo pol 5' 80” value (DRC-2, read at 5', concentration 80) was 30%. For the same molecule, the “% inhibition Apol 40' 2.5” value (DRC-2, read at 40', concentration 2.5) was 47%, the “% inhibition Apol 40' 5” value (DRC-2, read at 40', concentration 5) was 44% and the “% inhibition Apol 40' 10” value (DRC-2, read at 40', concentration 10) was 57%. The “% inhibition Apol 40' 20” value (DRC-2, read at 40', concentration 20) was 65%, the “% inhibition Apol 40' 40” value (DRC-2, read at 40', concentration 40) was 74% and the “% inhibition Apol 40' 80” value (DRC-2, read at 40', concentration 80) was 64%. For the same molecule, the “% inhibition ApPOL 90' 2.5” value (DRC-2, read at 90', concentration 2.5) was 43%, the “% inhibition ApPOL 90' 5” value (DRC-2, read at 90', concentration 5) was 40% and the “% inhibition ApPOL 90' 10” value (DRC-2, read at 90', concentration 10) was 55%. The “% inhibition ApPOL 90' 20” value (DRC-2, read at 90', concentration 20) was 65%, the “% inhibition ApPOL 90' 40” value (DRC-2, read at 90', concentration 40) was 76% and the “% inhibition ApPOL 90' 80” value (DRC-2, read at 90', concentration 80) was 71%. The “% inhibition apPOL 180' 2.5” value (DRC-2, concentration 2.5) was 31%, the “% inhibition apPOL 180' 5” value (DRC-2, concentration 5) was 26% and the “% inhibition apPOL 180' 10” value (DRC-2, concentration 10) was 43%. For the same molecule, the “% inhibition apPOL 180' 20” value (DRC-2, concentration 20) was 59%, the “% inhibition apPOL 180' 40” value (DRC-2, concentration 40) was 74% and the “% inhibition apPOL 180' 80” value (DRC-2, concentration 80) was 75%.
For `Cc1ccc(NC(=O)C2CCN(C(=O)c3cc4ccsc4[nH]3)CC2)c(Br)c1` [Molecule 14, O=C(C1CCN(CC1)C(=O)c1cc2c([nH]1)scc2)Nc1ccc(cc1Br)C], the “DNA Pol” value ("DNA Pol" of the 186 hits list (screen value)) was 67, the “% inhibition Apo pol 10'” value (DRC-1, concentration 2.5) was 11% and the “% inhibition Apo pol 10'” value (DRC-1, concentration 5) was 36%. The “% inhibition Apo pol 10'” value (DRC-1, concentration 10) was 68%, the “% inhibition Apo pol 10'” value (DRC-1, concentration 20) was 88% and the “% inhibition Apo pol 10'” value (DRC-1, concentration 40) was 87%. For the same molecule, the “% inhibition Apo pol 10'” value (DRC-1, concentration 80) was 89%, the “% inhibition Apol 90'” value (DRC-1, concentration 2.5) was 6% and the “% inhibition Apol 90'” value (DRC-1, concentration 5) was 22%. For the same molecule, the “% inhibition Apol 90'” value (DRC-1, concentration 10) was 48%, the “% inhibition Apol 90'” value (DRC-1, concentration 20) was 76% and the “% inhibition Apol 90'” value (DRC-1, concentration 40) was 77%. For the same molecule, the “% inhibition Apol 90'” value (DRC-1, concentration 80) was 84%, the “% inhibition apPOL 180'” value (DRC-1, concentration 2.5) was 5% and the “% inhibition apPOL 180'” value (DRC-1, concentration 5) was 12%. For the same molecule, the “% inhibition apPOL 180'” value (DRC-1, concentration 10) was 30%, the “% inhibition apPOL 180'” value (DRC-1, concentration 20) was 61% and the “% inhibition apPOL 180'” value (DRC-1, concentration 40) was 63%. For the same molecule, the “% inhibition apPOL 180'” value (DRC-1, concentration 80) was 75%, the “% inhibition Apo pol 5'” value (DRC-2, concentration 2.5) was 11% and the “% inhibition Apo pol 5'” value (DRC-2, concentration 5) was 22%. For the same molecule, the “% inhibition Apo pol 5'” value (DRC-2, concentration 10) was 43%, the “% inhibition Apo pol 5'” value (DRC-2, concentration 20) was 50% and the “% inhibition Apo pol 5'” value (DRC-2, concentration 40) was 54%. The “% inhibition Apo pol 5'” value (DRC-2, concentration 80) was 48%, the “% inhibition Apol 40'” value (DRC-2, concentration 2.5) was 9% and the “% inhibition Apol 40'” value (DRC-2, concentration 5) was 22%. The “% inhibition Apol 40'” value (DRC-2, concentration 10) was 49%, the “% inhibition Apol 40'” value (DRC-2, concentration 20) was 62% and the “% inhibition Apol 40'” value (DRC-2, concentration 40) was 68%. The “% inhibition Apol 40'” value (DRC-2, concentration 80) was 67%, the “% inhibition ApPOL 90'” value (DRC-2, concentration 2.5) was 8.49% and the “% inhibition ApPOL 90'” value (DRC-2, concentration 5) was 18%. For the same molecule, the “% inhibition ApPOL 90'” value (DRC-2, concentration 10) was 45%, the “% inhibition ApPOL 90'” value (DRC-2, concentration 20) was 61% and the “% inhibition ApPOL 90'” value (DRC-2, concentration 40) was 68%. The “% inhibition ApPOL 90'” value (DRC-2, concentration 80) was 70%, the “% inhibition apPOL 180'” value (DRC-2, concentration 2.5) was 2.63% and the “% inhibition apPOL 180'” value (DRC-2, concentration 5) was 12%. The “% inhibition apPOL 180'” value (DRC-2, concentration 10) was 34%, the “% inhibition apPOL 180'” value (DRC-2, concentration 20) was 52% and the “% inhibition apPOL 180'” value (DRC-2, concentration 40) was 64%. The “% inhibition apPOL 180'” value (DRC-2, concentration 80) was 69%, the “% inhibition Apo pol 10'” value (first DRC, concentration 2.5) was 11% and the “% inhibition Apo pol 10'” value (first DRC, concentration 10) was 68%. The “% inhibition Apol 90'” value (first DRC, concentration 5) was 22%, the “% inhibition Apol 90'” value (first DRC, concentration 10) was 48% and the “% inhibition apPOL 180'” value (first DRC, concentration 5) was 12%. The “% inhibition apPOL 180'” value (first DRC, concentration 20) was 61% and the “DNA Pol” value (primary screen value, DNA Pol) was 67.
